Results from PMC3026800, “Mechanism of Inhibition of Enveloped Virus Membrane Fusion by the Antiviral Drug Arbidol” (PLoS ONE, 2011).

Test system: HApp (pseudoparticles harbouring the influenza hemagglutinin)
Format: cell-based
Settings: 11.3 µM arbidol

Question: How did the “Sensitivity of pseudoparticle entry to arbidol” value turn out when `CCOC(=O)c1c(CSc2ccccc2)n(C)c2cc(Br)c(O)c(CN(C)C)c12.Cl` [Arb, 1H-indole-3-carboxylic acid, 6-bromo-4-[(dimethylamino)-methyl]-5-hydroxy-1-methyl-2-[(phenylthio)methyl]-, ethyl ester, monohydrochloride] was run?
Answer: sensitive
